# In US8133885B2, “Non steroidal glucocorticoid receptor modulators” (Merck Sharp & Dohme Corp., priority 2005, dated 2012):
# Where two headings read alike, the source gives them in different places.
# Tests used:
# LPS-induced TNFα = assay: Inhibition of LPS-induced TNFα in serum of mice; assay type: in vivo; details: Mus musculus, read-out: ED50 for inhibition of LPS-induced TNFα
# Description: The potency of compounds to inhibit inflammation was quantified in a model in which mice were treated with lipopolysaccharide (LPS). Anti-inflammatory effects were quantified as inhibition of LPS-induced TNFα (S. R. Hyde & R. E. McCallum, Infection & Immunity, 60; 976-982 (1992)). Mice were treated i.p. with 0.5 mg/kg LPS. […] 1½ hours after LPS induction, serum was collected and mice were sacrificed. TNFα levels in serum were quantified using a commercially available Elisa-kit according to the descriptions of the supplier.
# [1] = target: T1, recombinant human-GR (GR) (Homo sapiens, UniProt P04150); assay: Glucocorticoid Receptor Competitor Assay kit (PanVera), fluorescence polarisation binding; details: fluorescence polarisation competition with fluormone GS1 1 nM, GR 4 nM, 90 minutes room temperature
# T1 construct: purchased PanVera
# T1 sequence (P04150 1-777): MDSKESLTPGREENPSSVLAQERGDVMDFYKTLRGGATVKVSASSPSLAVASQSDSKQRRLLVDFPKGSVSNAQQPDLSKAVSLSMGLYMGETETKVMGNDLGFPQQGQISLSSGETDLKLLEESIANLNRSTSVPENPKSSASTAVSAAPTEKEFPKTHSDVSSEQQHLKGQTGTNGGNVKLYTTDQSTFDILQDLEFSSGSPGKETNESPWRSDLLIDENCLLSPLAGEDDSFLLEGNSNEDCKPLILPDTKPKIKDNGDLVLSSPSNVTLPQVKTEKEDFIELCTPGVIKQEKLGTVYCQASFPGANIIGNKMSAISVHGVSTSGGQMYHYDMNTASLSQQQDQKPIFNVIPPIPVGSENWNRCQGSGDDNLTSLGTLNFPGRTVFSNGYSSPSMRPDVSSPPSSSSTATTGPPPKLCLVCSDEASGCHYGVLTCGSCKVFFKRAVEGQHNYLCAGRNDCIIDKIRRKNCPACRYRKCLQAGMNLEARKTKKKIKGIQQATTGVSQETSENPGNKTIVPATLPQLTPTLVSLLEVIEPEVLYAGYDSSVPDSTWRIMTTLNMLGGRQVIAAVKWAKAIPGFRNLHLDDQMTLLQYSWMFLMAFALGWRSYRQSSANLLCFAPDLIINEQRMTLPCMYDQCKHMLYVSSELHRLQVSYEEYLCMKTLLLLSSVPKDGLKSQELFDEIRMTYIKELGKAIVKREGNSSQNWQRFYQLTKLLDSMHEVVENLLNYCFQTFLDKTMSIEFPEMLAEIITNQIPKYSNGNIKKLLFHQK
# Description: The affinity of compounds was tested using a Glucocorticoid Receptor Competitor Assay kit (PanVera®). Components of the kit were thawed from −80° C. on ice (Fluormone GS1, recombinant human-GR (GR)) or at room temperature (GR screening buffer, stabilising peptide and DTT). 10 mM test compounds were manually diluted to 20 μM then serially diluted to a final concentration range of 10 μM to 0.1 nM using the BioMek 2000 (Beckman-Coulter) into a black walled 384 welled plate (Matrix technologies). In the following order: fluormone GS1 (1 nM final concentration) is added to all wells excluding the buffer control wells, GR (4 nM final concentration) is added to all wells except minimum and buffer control wells, cortisol (10 μM final concentration) is added to fluormone GS1 control wells only, buffer is added to all wells to a final volume of 40 μl. The plate is covered and incubated at room temperature with agitation for 90 minutes. Readings were taken using the Analyst (LJL) in fluorescence polarisation reading mode. The MilliP ratio is calculated from cps readings obtained in parallel and perpendicular mode. The percent effect of the bound ligand is calculated at each concentration and the dose response curves plotted allowing the EC50 to be calculated. […]
# [2] = mice, 0.5 mg/kg LPS i.p., compound oral or subcutaneous 1 hour before LPS, serum 1½ hours after LPS
Structure (SMILES),ED50 (LPS-induced TNFα; [2]) [mg/kg],also measured
"C[C@]12C=CC(=O)C=C1CC[C@@H]1[C@@H]2[C@@H](O)C[C@@]2(C)[C@H]1CC[C@]2(O)C(=O)CO [prednisolone, reference compound]",0.5,–
"CN1c2ccccc2[C@@H]2C[C@@H](NC(=O)C(F)(F)F)CCN2c2cc(Cl)c(C#N)cc21 (relative stereo) [Example 9, cis-N-(7-chloro-8-cyano-1,2,3,4,10,14b-hexahydro-10-methyl-dibenzo-[b,f]pyrido[1,2-d][1,4]diazepin-2-yl)-2,2,2-trifluoroacetamide]",–,ED50 (LPS-induced TNFα): 0.5 to 20 mg/kg
"CN1c2ccccc2[C@@H]2C[C@@H](NC(=O)C(F)(F)F)CCN2c2ccc([N+](=O)[O-])cc21 (relative stereo) [Example 2, cis-2,2,2-trifluoro-N-(1,2,3,4,10,14b-hexahydro-10-methyl-8-nitrodibenzo[b,f]pyrido[1,2-d][1,4]diazepin-2-yl)acetamide]",0.5 to 20,–
"CN1c2ccccc2[C@@H]2C[C@@H](NC(=O)C(F)(F)F)CCN2c2ccc(C(=O)Nc3ccccc3)cc21 (relative stereo) [Example 4, cis-1,2,3,4,10,14b-hexahydro-10-methyl-N-phenyl-2-(2,2,2-trifluoroacetylamino)dibenzo[b,f]pyrido[1,2-d][1,4]diazepine-8-carboxamide]",0.5 to 20,–
CC#C[C@]1(O)CC[C@H]2[C@@H]3CCC4=CC(=O)CCC4=C3[C@@H](c3ccc4c(c3)OCO4)C[C@@]21C,–,EC50 [1]: 10 nM
"CN1c2ccccc2[C@@H]2C[C@@H](NC(=O)C(F)(F)F)CCN2c2ccc(C#N)cc21 (relative stereo) [Example 3, cis-N-(8-cyano-1,2,3,4,10,14b-hexahydro-10-methyldibenzo[b,f]pyrido[1,2-d][1,4]diazepin-2-yl)-2,2,2-trifluoroacetamide]",0.5 to 20,–
"CN1c2ccccc2[C@@H]2C[C@@H](NC(=O)C(Cl)Cl)CCN2c2ccc(C#N)cc21 (relative stereo) [Example 5, cis-2,2-dichloro-N-(8-cyano-1,2,3,4,10,14b-hexahydro-10-methyldibenzo-[b,f]pyrido[1,2-d][1,4]diazepin-2-yl)acetamide]",0.5 to 20,–
"Cc1nnsc1C(=O)N[C@H]1CCN2c3ccc([N+](=O)[O-])cc3N(C)c3ccccc3[C@@H]2C1 (relative stereo) [Example 31, cis-N-(1,2,3,4,10,14b-hexahydro-10-methyl-8-nitrodibenzo[b,f]pyrido[1,2-d][1,4]diazepin-2-yl)-4-methyl-1,2,3-thiadiazole-5-carboxamide]",0.5 to 20,–
